This note sets out measurements from patent US11553718B2, “Mic reduction with lithium ions” (priority 2014, dated 2023).

Values joined by “and” are separate entries in the source; they are usually repeats but may differ in a detail not shown here. Identical values can stand only once. Like-named read-outs stand apart in the source and are kept apart here.

Test [1] deals with S. aureus strain DSMZ 346. Description: MIC determination / bacterial count in CaCO3 slurry with or without lithium ions. Type of test: cell-based. Conditions: for MIC ratio (MICwithout Li/MICLi): S. aureus; for MIC: Staphylococcus aureus, DSMZ346, S. aureus, read-out: MIC active/aequeous. As to the method:
(§1) When not otherwise indicated, the quoted bacterial counts (values are in cfu/plate) in the Tables here below are determined after 2 days following plate-out and incubation at 30° C. The counting method was as follows. The aqueous preparations were stirred well with a cotton swap (e.g. Applimed SA, No. 1102245); the excess aqueous preparation was removed by dipping it gently to the side of the aqueous preparation container, leaving approximately 200 mg of aqueous preparation on the swap. […] TSA plates were then incubated for 48 h at 30° C. Colony forming units (cfu) were then counted and reported as cfu/plate. Counts from 100 to 999 cfu per plate are reported as ≥100 cfu/plate. Counts of 1000 cfu and above per plate are reported as ≥1000 cfu/plate. Yeast and moulds were counted as described for bacteria with the following exceptions, a) Sabouraud Dextrose Agar (SDA) containing Chloramphenicol (e.g. heipha Dr. Miller GmbH, No. 1460030020) were used instead of TSA, b) SDA plates were incubated at 25° for 5 days and c) cfu were counted and reported after 48 h and 5 days of incubation. Yeast and moulds counts from 20 to 99 cfu per plate are reported as […]. Yeast and moulds counts of 100 cfu and above per plate are reported as >100 cfu/plate.
(§2) For determining the MIC, the tested microorganism, i.e. the strain of bacteria and/or strain of yeast and/or strain of mould, were freshly grown until the end of the logarithmic growth phase according to the requirements of the individual species to a density of approximately 10^7-10^9 cells/ml.
(§3) For example, fresh bacteria cultures of the bacteria E. coli, e.g. E. coli ATCC 11229, and S. aureus, e.g. S. aureus strains DSMZ 346, were prepared by inoculation of 3 ml liquid growth media (tryptic soy broth, e.g. Fluka Cat. No. 22092) from a stock culture and incubation for 16 to 20 h at 30° C. with agitation at 150 rotations per minutes (rpm) leading to a cell density of approximately 2×10^8 cells/ml. Fresh cultures of resistant bacteria, adapted to the conditions in biocide containing CaCO3 slurries, were prepared by inoculation of 50 g 75 wt.-% solid content CaCO3 slurry from a stock culture and incubated for 14 to 28 days at 30° C. without agitation.
(§4) Lithium ions were added to the aqueous preparation (e.g. CaCO3 slurry) by the addition of a water soluble lithium salt. For example to 50 g CaCO3 slurry with a solid content of 75% (w/w) 1.177 ml of a 74 g/Li2CO3 suspension was added and mixed well leading to a lithium ion concentration of 172 mM or 1205 ppm in the water phase. As another example to 50 g CaCO3 slurry with a solid content of 75 wt.-% (w/w) 0.04 ml of a 292 g/L Li3Citrate (2M) solution was added and mixed well leading to a lithium ion concentration of 19 mM or 135 ppm in the water phase.
(§5) The biocide to be tested was added to the aqueous preparation (e.g. CaCO3 slurry with or without lithium ions) in increasing concentrations starting from 0 ppm (without biocide). The concentrations ranged from concentrations higher than recommended by the supplier, to very low amounts (as low as 1 ppm or lower). Of each biocide concentration a 3 ml sample of aqueous preparation was combined with 20 μl fresh bacterial culture.
(§6) All samples were incubated at 30° C. for 24 h. After incubation colony forming units (cfu) per plate (cfu/plate) were determined as described above under bacterial count.
(§7) The MIC for bacteria is defined as the lowest concentration of biocide in the presence or absence of lithium ion amongst all samples tested, where the bacterial concentration dropped below 100 cfu/plate. The MIC for yeast and mould is defined as the lowest concentration of biocide in the presence or absence of lithium ion amongst all samples tested, where the microbial concentration dropped below 20 cfu/plate.

The subject of a further test is E. coli strain ATCC11229. The test is described as above. Type of test: cell-based. The settings on record: for MIC ratio (MICwithout Li/MICLi): E. coli; for MIC: Escherichia coli, ATCC11229, read-out: MIC active/aequeous, E. coli. The procedure:
as §1, §2, §3, §4, §5, §6, §7

Another test concerns rOPP strain. Description: MIC determination in CaCO3 slurry with or without lithium ions. Conditions: Li2CO3; for MIC: Ectopseudomonas mendocina, read-out: MIC active/aequeous, rOPP; for MIC ratio (MICwithout Li/MICLi): rOPP. Type of test: cell-based, Pseudomonas mendocina. The procedure:
as §1, §2, §3, §4, §5, §6, §7

The subject of a further test is rGDA/IT (rGDA-IT) strain. The test is described as above. Type of test: cell-based, Pseudomonas mendocina. The settings on record: Li^+ 197 mM (1380 ppm), Li2CO3. The procedure:
as §1, §2, §3, §4, §5, §6, §7

Another test deals with bacterial strain rOmyAK. The test can be described thus: microbe, parasite or virus in culture. Type of test: cell-based, Pseudomonas mendocina. The settings on record: for bacterial count: rOmy AK; for MIC ratio (MICwithout Li/MICLi) / MIC active/aequeous: rOmyAK. As to the method:
as §1, §2, §3, §4, §5, §6, §7

The next test has as its system S. aureus. Description: Curative MIC (bacteria added before biocide and lithium). Type of test: cell-based. The settings on record: Curative treatment, Li^+ 329 mM (2305 ppm), Li2CO3.

As for `Oc1ccccc1-c1ccccc1` [2-Phenylphenol (OPP), 2-Phenylphenol], the “MIC ratio (MICwithout Li/MICLi)” value in test [1] (Li^+ 53 mM (370 ppm), Li2CO3) is listed as 2; in test [1] (Li^+ 67 mM (470 ppm), LiOH) it was 10; in the test on E. coli strain ATCC11229 (Li^+ 197 mM (1380 ppm), Li2CO3), 1.5; with rOPP strain (Li^+ 172 mM (1205 ppm)), 2; in the test with rOPP strain (Li^+ 197 mM (1380 ppm)) it was more than 4.5; in the test with rOPP strain (Li^+ 329 mM (2305 ppm)) it was more than 9. For the same molecule, the MIC in test [1] (Li^+ 53 mM (370 ppm), Li2CO3) was 880 µM and 150 µg/mL; in test [1] (Li^+ 67 mM (470 ppm), LiOH), 180 µM and 30 µg/mL; in test [1] (no Li^+), 1760 µM and 300 µg/mL; in the test on E. coli strain ATCC11229 (Li^+ 197 mM (1380 ppm), Li2CO3), 2080 µM and 354 µg/mL; with E. coli strain ATCC11229 (no Li^+) it was 3120 µM and 531 µg/mL; in the test on rOPP strain (Li^+ 172 mM (1205 ppm)), 260 µM and 45 µg/mL. Further, the MIC in the test with rOPP strain (Li^+ 197 mM (1380 ppm)) was 2080 µM and 354 µg/mL; with rOPP strain (Li^+ 329 mM (2305 ppm)) it was 1040 µM and 177 µg/mL.
Turning to `Cn1sccc1=O` [MIT, 2-Methyl-2H-isothiazolin-3-one], the “MIC ratio (MICwithout Li/MICLi)” value in test [1] (Li^+ 329 mM (2305 ppm), Li2CO3) is recorded as more than 5; with E. coli strain ATCC11229 (Li^+ 197 mM (1380 ppm), Li2CO3) it was more than 2.5; in the test on rGDA/IT (rGDA-IT) strain it was 1.67; in the test on bacterial strain rOmyAK (Li^+ 197 mM (1380 ppm), Li2CO3) it was 1; in the test on bacterial strain rOmyAK (Li^+ 329 mM (2305 ppm), Li2CO3) it was 3; in the test with bacterial strain rOmyAK (Li^+ 423 mM (2964 ppm), Li2CO3), 6. Besides, the bacterial count was not below 100 cfu/plate in the test with bacterial strain rOmyAK (18 ppm MIT, 329 mM Li^+); not below 1000 cfu/plate in the test on bacterial strain rOmyAK (18 ppm MIT, no Li^+); 68 cfu/plate with bacterial strain rOmyAK (35 ppm MIT, 329 mM Li^+); not below 100 cfu/plate in the test with bacterial strain rOmyAK (35 ppm MIT, no Li^+); 0 cfu/plate in the test with bacterial strain rOmyAK (106 ppm MIT, 329 mM Li^+); 0 cfu/plate with bacterial strain rOmyAK (106 ppm MIT, no Li^+). Moreover, the MIC active/aequeous stood at 35 ppm in the test on bacterial strain rOmyAK (Li^+ 329 mM (2305 ppm), Li2CO3) and 106 ppm in the test with bacterial strain rOmyAK (no Li^+).
With `O=c1[nH]sc2ccccc12` [Benzisothiazolinone (BIT), Benzisothiazolinone], the “MIC ratio (MICwithout Li/MICLi)” value in test [1] (Li^+ 423 mM (2964 ppm), Li2CO3) is on record as more than 2; in the test on S. aureus, 2.
